Molecular target: ATP-dependent translocase ABCB1 (Homo sapiens, UniProt P08183)
Assay: TP_TRANSPORTER: inhibition of Rhodamine 123 efflux (R123: 5.2 micro;M) in MDR1 transfected L-5178 cells
Assay type: functional, cell-based
Conditions: mouse

Sequence of ATP-dependent translocase ABCB1 (P08183 whole entry): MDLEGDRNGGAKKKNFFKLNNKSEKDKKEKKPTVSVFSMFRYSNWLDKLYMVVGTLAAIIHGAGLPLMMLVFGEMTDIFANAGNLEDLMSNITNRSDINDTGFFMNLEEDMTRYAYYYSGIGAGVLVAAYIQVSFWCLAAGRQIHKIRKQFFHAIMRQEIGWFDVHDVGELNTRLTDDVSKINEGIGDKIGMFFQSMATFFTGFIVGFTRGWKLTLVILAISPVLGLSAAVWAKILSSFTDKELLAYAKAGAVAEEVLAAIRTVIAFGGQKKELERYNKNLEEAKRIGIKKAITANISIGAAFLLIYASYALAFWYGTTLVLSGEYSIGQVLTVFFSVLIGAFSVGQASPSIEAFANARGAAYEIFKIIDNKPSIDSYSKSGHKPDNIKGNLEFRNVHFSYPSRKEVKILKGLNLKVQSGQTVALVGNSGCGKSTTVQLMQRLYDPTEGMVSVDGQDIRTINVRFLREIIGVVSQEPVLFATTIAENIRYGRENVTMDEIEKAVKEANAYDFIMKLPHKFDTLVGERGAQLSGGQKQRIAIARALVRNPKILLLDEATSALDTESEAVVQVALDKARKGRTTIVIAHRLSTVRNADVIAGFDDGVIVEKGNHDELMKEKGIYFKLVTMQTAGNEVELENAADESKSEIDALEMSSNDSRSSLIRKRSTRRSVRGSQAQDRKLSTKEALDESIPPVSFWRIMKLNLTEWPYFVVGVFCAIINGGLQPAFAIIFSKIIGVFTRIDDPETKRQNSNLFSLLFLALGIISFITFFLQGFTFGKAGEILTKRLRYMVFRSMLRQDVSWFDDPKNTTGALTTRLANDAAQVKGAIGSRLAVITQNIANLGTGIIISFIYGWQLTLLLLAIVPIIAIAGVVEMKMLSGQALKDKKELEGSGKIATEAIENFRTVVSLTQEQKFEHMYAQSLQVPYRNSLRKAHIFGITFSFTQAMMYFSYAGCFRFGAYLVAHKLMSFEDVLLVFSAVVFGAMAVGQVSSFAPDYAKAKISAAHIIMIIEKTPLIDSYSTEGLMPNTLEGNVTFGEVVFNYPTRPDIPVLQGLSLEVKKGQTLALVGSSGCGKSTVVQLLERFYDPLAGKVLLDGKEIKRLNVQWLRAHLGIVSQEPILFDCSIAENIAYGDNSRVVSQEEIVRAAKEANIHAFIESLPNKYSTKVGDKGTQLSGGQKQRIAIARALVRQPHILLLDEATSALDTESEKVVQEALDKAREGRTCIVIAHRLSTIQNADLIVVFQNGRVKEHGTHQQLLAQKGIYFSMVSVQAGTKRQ

Activity: inhibitor [+]
Sequence: PERSIMMON PEEL EXTRACTS

Reference: ChEMBL document CHEMBL2074237, “Biological activity of persimmon (Diospyros kaki) peel extracts” (Phytother Res, 2003)
